Test results from US8487102B2, “Pyrrazolopyridine compounds as dual NK1/NK3 receptor antagonists” (Hoffmann-La Roche Inc., priority 2010, dated 2013).

Legend:
[1] = target: T1, Recombinant human NK3 (hNK3) receptor (Homo sapiens, UniProt P29371); assay: NK3 receptor binding assay, [3H]SR142801 displacement; conditions: hNK3 receptor membranes, [3H]SR142801 0.3 nM
T1 construct: expressed in transfected cells; membrane preparations of the recombinant receptor
T1 sequence (P29371 1-465): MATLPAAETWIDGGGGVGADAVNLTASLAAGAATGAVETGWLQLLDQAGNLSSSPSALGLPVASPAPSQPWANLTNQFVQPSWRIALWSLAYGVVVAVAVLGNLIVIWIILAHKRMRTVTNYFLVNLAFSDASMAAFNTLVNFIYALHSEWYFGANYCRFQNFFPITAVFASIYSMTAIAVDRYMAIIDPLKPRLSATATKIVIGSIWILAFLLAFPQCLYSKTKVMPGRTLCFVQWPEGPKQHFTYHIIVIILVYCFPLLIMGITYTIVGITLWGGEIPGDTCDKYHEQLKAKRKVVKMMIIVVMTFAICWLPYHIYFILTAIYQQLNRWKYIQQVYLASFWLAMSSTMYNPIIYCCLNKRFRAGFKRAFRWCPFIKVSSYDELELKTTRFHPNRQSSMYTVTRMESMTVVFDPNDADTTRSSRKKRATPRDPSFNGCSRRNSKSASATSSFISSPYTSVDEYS
Procedure: Recombinant human NK3 (hNK3) receptor affinity was determined in a 96 well plate assay, using [^3H]SR142801 (final concentration 0.3 nM) to radiolabel the hNK3 receptor in the presence of 10 concentrations of competing compound or buffer. Non specific binding was determined using 10 μM SB222200. Assay buffer consisted of Tris-HCl (50 mM, pH 7.4), BSA (0.1%), MnCl2 (4 mM) and phosphoramidon (1 μM). Membrane preparations of hNK3 receptors (approximately 2.5 μg/well in a 96 well plate) were used to initiate the incubation for 90 min at room temperature. This assay was terminated by rapid filtration under vacuum through GF/C filters, presoaked for 90 min with PEI (0.3%), with 3×0.5 ml washes of ice-cold Tris buffer (50 mM, pH 7.4) containing 0.1% BSA. The radioactivity retained on the filters was measured by scintillation counting. All assays were performed in duplicate in at least two separate experiments.

human NK1 receptor = target: T2, human NK1 receptor (Homo sapiens, UniProt P25103); assay: NK1 receptor binding assay, [3H]substance P displacement; conditions: human NK1 receptors in CHO cells, [3H]substance P 0.6 nM
T2 construct: expressed in transfected cells; host or cells: CHO cells (Semliki virus expression system), membrane suspension
T2 sequence (P25103 whole entry): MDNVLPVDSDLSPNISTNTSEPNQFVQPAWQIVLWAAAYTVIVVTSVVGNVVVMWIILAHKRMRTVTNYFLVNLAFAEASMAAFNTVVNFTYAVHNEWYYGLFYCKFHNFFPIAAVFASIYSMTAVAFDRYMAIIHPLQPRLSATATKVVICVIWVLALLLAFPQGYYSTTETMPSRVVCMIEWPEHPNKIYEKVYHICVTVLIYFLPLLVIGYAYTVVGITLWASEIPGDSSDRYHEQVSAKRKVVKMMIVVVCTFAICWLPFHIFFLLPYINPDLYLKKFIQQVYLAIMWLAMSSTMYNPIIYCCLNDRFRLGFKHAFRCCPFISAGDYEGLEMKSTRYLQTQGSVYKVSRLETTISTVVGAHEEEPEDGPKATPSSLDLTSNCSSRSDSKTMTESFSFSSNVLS

SMILES | Ki [1] | Ki (human NK1 receptor)
CCn1ncc2c(-c3ccc(F)cc3C)c(N(C)C(=O)C(C)(C)c3cccc(C(F)(F)F)c3)cnc21 [Example 30, N-[1-Ethyl-4-(4-fluoro-2-methyl-phenyl)-1H-pyrazolo[3,4-b]pyridin-5-yl]-N-methyl-2-(3-trifluoromethyl-phenyl)-isobutyramide] | 875 nM | 12.4 nM
Cc1cc(F)ccc1-c1c(N(C)C(=O)C(C)(C)c2cc(C(F)(F)F)cc(C(F)(F)F)c2)cnc2c1cnn2CS(C)(=O)=O [Example 38, 2-(3,5-Bis-trifluoromethyl-phenyl)-N-[4-(4-fluoro-2-methyl-phenyl)-1-methanesulfonylmethyl-1H-pyrazolo[3,4-b]pyridin-5-yl]-N-methyl-isobutyramide] | 8 nM | 1.1 nM
CCn1ncc2c(-c3ccc(F)cc3C)c(NC(=O)C(C)(C)c3cc(C(F)(F)F)cc(C(F)(F)F)c3)cnc21 [Example 5, 2-(3,5-Bis-trifluoromethyl-phenyl)-N-[1-ethyl-4-(4-fluoro-2-methyl-phenyl)-1H-pyrazolo[3,4-b]pyridin-5-yl]-isobutyramide] | 200 nM | 6 nM
CCn1ncc2c(-c3ccccc3OC)c(N(C)C(=O)C(C)(C)c3cc(C(F)(F)F)cc(C(F)(F)F)c3)cnc21 [Example 15, 2-(3,5-Bis-trifluoromethyl-phenyl)-N-[1-ethyl-4-(2-methoxy-phenyl)-1H-pyrazolo[3,4-b]pyridin-5-yl]-N-methyl-isobutyramide] | 208 nM | 0.7 nM
Cc1cc(F)ccc1-c1c(N(C)C(=O)C(C)(C)c2cc(C(F)(F)F)cc(C(F)(F)F)c2)cnc2c1cnn2CC(F)F [Example 6, 2-(3,5-Bis-trifluoromethyl-phenyl)-N-[1-(2,2-difluoro-ethyl)-4-(4-fluoro-2-methyl-phenyl)-1H-pyrazolo[3,4-b]pyridin-5-yl]-N-methyl-isobutyramide] | 6.8 nM | 0.9 nM
CCn1ncc2c(-c3ccccc3C)c(N(C)C(=O)C(C)(C)c3cc(C(F)(F)F)cc(C(F)(F)F)c3)cnc21 [Example 1, 2-(3,5-Bis-trifluoromethyl-phenyl)-N-(1-ethyl-4-o-tolyl-1H-pyrazolo[3,4-b]pyridin-5-yl)-N-methyl-isobutyramide] | 32.7 nM | 1.2 nM
CCn1ncc2c(-c3ccc(OC)cc3C)c(N(C)C(=O)C(C)(C)c3cc(C(F)(F)F)cc(C(F)(F)F)c3)cnc21 [Example 16, 2-(3,5-Bis-trifluoromethyl-phenyl)-N-[1-ethyl-4-(4-methoxy-2-methyl-phenyl)-1H-pyrazolo[3,4-b]pyridin-5-yl]-N-methyl-isobutyramide] | 373 nM | 8.6 nM
CCn1ncc2c(-c3ccsc3Cl)c(N(C)C(=O)C(C)(C)c3cc(C(F)(F)F)cc(C(F)(F)F)c3)cnc21 [Example 24, 2-(3,5-Bis-trifluoromethyl-phenyl)-N-[4-(2-chloro-thiophen-3-yl)-1-ethyl-1H-pyrazolo[3,4-b]pyridin-5-yl]-N-methyl-isobutyramide] | 0.7 nM | 36 nM
Cc1cc(F)ccc1-c1c(N(C)C(=O)C(C)(C)c2cc(C(F)(F)F)cc(C(F)(F)F)c2)cnc2c1cnn2CC(=O)N1CCCC1 [Example 34, 2-(3,5-Bis-trifluoromethyl-phenyl)-N-[4-(4-fluoro-2-methyl-phenyl)-1-(2-oxo-2-pyrrolidin-1-yl-ethyl)-1H-pyrazolo[3,4-b]pyridin-5-yl]-N-methyl-isobutyramide] | 39.5 nM | –
CCn1ncc2c(-c3cc(CO)ccc3Cl)c(N(C)C(=O)C(C)(C)c3cc(C(F)(F)F)cc(C(F)(F)F)c3)cnc21 [Example 22, 2-(3,5-Bis-trifluoromethyl-phenyl)-N-[4-(2-chloro-5-hydroxymethyl-phenyl)-1-ethyl-1H-pyrazolo[3,4-b]pyridin-5-yl]-N-methyl-isobutyramide] | 4.8 nM | 2.5 nM
CCn1ncc2c(-c3cscc3C)c(N(C)C(=O)C(C)(C)c3cc(C(F)(F)F)cc(C(F)(F)F)c3)cnc21 [Example 21, 2-(3,5-Bis-trifluoromethyl-phenyl)-N-[1-ethyl-4-(4-methyl-thiophen-3-yl)-1H-pyrazolo[3,4-b]pyridin-5-yl]-N-methyl-isobutyramide] | 1.2 nM | 92 nM
CCn1ncc2c(-c3cc(F)ccc3C)c(N(C)C(=O)C(C)(C)c3cc(C(F)(F)F)cc(C(F)(F)F)c3)cnc21 [Example 13, 2-(3,5-Bis-trifluoromethyl-phenyl)-N-[1-ethyl-4-(5-fluoro-2-methyl-phenyl)-1H-pyrazolo[3,4-b]pyridin-5-yl]-N-methyl-isobutyramide] | 160 nM | 7.9 nM
Cc1cc(F)ccc1-c1c(N(C)C(=O)C(C)(C)c2cc(C(F)(F)F)cc(C(F)(F)F)c2)cnc2c1cnn2CC(=O)N(C)C [Example 35, 2-(3,5-Bis-trifluoromethyl-phenyl)-N-[1-dimethylcarbamoylmethyl-4-(4-fluoro-2-methyl-phenyl)-1H-pyrazolo[3,4-b]pyridin-5-yl]-N-methyl-isobutyramide] | 93.9 nM | –
CCn1ncc2c(-c3ccccc3CO)c(N(C)C(=O)C(C)(C)c3cc(C(F)(F)F)cc(C(F)(F)F)c3)cnc21 [Example 20, 2-(3,5-Bis-trifluoromethyl-phenyl)-N-[1-ethyl-4-(2-hydroxymethyl-phenyl)-1H-pyrazolo[3,4-b]pyridin-5-yl]-N-methyl-isobutyramide] | 209 nM | 1.6 nM
CC(=O)n1ncc2c(-c3ccc(F)cc3C)c(N(C)C(=O)C(C)(C)c3cc(C(F)(F)F)cc(C(F)(F)F)c3)cnc21 [Example 31, N-[1-Acetyl-4-(4-fluoro-2-methyl-phenyl)-1H-pyrazolo[3,4-b]pyridin-5-yl]-2-(3,5-bis-trifluoromethyl-phenyl)-N-methyl-isobutyramide] | 12.9 nM | 1.2 nM
CCn1ncc2c(-c3ccc(F)cc3F)c(N(C)C(=O)C(C)(C)c3cc(C(F)(F)F)cc(C(F)(F)F)c3)cnc21 [Example 8, 2-(3,5-Bis-trifluoromethyl-phenyl)-N-[4-(2,4-difluoro-phenyl)-1-ethyl-1H-pyrazolo[3,4-b]pyridin-5-yl]-N-methyl-isobutyramide] | 483 nM | 1.7 nM
CCn1ncc2c(-c3ccc(F)cc3C)c(N(C)C(=O)C(C)(C)c3cc(Cl)cc(Cl)c3)cnc21 [Example 27, 2-(3,5-Dichloro-phenyl)-N-[1-ethyl-4-(4-fluoro-2-methyl-phenyl)-1H-pyrazolo[3,4-b]pyridin-5-yl]-N-methyl-isobutyramide] | 35.1 nM | 2.6 nM
CCn1ncc2c(-c3cccc(Cl)c3Cl)c(N(C)C(=O)C(C)(C)c3cc(C(F)(F)F)cc(C(F)(F)F)c3)cnc21 [Example 18, 2-(3,5-Bis-trifluoromethyl-phenyl)-N-[4-(2,3-dichloro-phenyl)-1-ethyl-1H-pyrazolo[3,4-b]pyridin-5-yl]-N-methyl-isobutyramide] | 45.3 nM | –
CCn1ncc2c(-c3cccnc3C)c(N(C)C(=O)C(C)(C)c3cc(C(F)(F)F)cc(C(F)(F)F)c3)cnc21 [Example 25, 2-(3,5-Bis-trifluoromethyl-phenyl)-N-[1-ethyl-4-(2-methyl-pyridin-3-yl)-1H-pyrazolo[3,4-b]pyridin-5-yl]-N-methyl-isobutyramide] | – | 522 nM
